Measured values: BindingDB's records for doi:10.1021/jm00107a015 (Institute of Cancer Research, 1991)

Test: Growth inhibition of thymidylate synthase(TS) in L1210 cells

IC50 [nM] | SMILES
260 | CCN(Cc1ccc2nc[nH]c(=S)c2c1)c1ccc(C(=O)NC(CCC(=O)O)C(=O)O)cc1 (stereo not drawn)
110 | C#CCN(Cc1ccc2nc[nH]c(=S)c2c1)c1ccc(C(=O)NC(CCC(=O)O)C(=O)O)cc1 (stereo not drawn)
117000 | CCN(Cc1ccc2ncnc(SC)c2c1)c1ccc(C(=O)NC(CCC(=O)O)C(=O)O)cc1 (stereo not drawn)
